Test results taken from patent US20220106304A1, “Transcription Factor BRN2 Inhibitory Compounds as Therapeutics and Methods for Their Use” (The University of British Columbia, priority 2018, published 2022).

Legend:
[1] = tested on: 42D^ENZR cells vs 16D^CRPC cells; test: Cell proliferation specificity, 42D^ENZR cells vs 16D^CRPC cells; assay type: cell-based; details: 42D cells express BRN2, 16D cells do not; some also LNCaP; result in words
Protocol: (§1) Plate 42DENZR (˜7000 cells per well) and 16D^CRPC (˜5000 cells per well) cells in 96 well plate with a volume of 100 μL per well. • 2. Next day 1 mL aliquots of media are combined with 3× the desired concentration of compounds. The aliquots are vortexed and 50 μL of each 3× concentration is added to the 100 μL of media in each well to give the ix desired concentration.
(§2) The following are the desired concentrations:
(§3) 0, 10 nM, 100 nM, 500 nM, 1 μM, 2.5 μM, 5 μM, 10 μM, 15 μM, […], 30 μM. • 3. Approximately 72 hours later, 17 μL of 10% Glutaraldehyde is added to each well and plates are placed on a shaker for 20-30 minutes. • 4. Media is washed off the fixed cells by slow submersion in a container of water. Then the water is removed by tapping the plate upside down. • 5. 75 μL of Crystal Violet™ solution is added into the 96 well plates and placed on a shaker for ˜30 minutes. • 6. Media is washed off the fixed cells by repeated slow submersion in a container of water and the plates are allowed to dry over-night. • 7. Next day, 75 μL of Sorensen Solution is accurately pipetted into each well. The plates placed on a shaker for ˜30 minutes. • 8. Absorbance is measured in the plate at 590 nm.
Compounds that Show Specificity Towards 42D^ENZR Cells Vs 16D^CRPC Cells Progress to Step 4.
Where data is not available “na” is inserted.

[2] = Liver microsome metabolic stability, MLM; assay type: in vitro ADME; details: MLM (single value or second of two), 1 μM compound, 0.25 mg/mL protein; for Met Stab % (60 mins HLM/MLM): percent remaining at 60 min, 1 mM NADPH; for half-life at 1 µM: mouse, liver microsomes, pH 7.4, read-out: T1/2 in (mins HLM/MLM)
Procedure, shortened: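 Compound (1 μM) incubated at 37 °C with mouse or human liver microsomes (0.25 mg/mL) in 50 mM phosphate pH 7.4 with 1 mM NADPH; samples quenched at 0–60 min. Parent loss by LC-MS/MS gives t½ (0.693/k) and CL'int scaled by 45 mg protein/g liver.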

[3] = tested on: 42D^ENZR cells; test: Cell proliferation (crystal violet), BRN2 expressing 42D^ENZR cells; assay type: cell-based; details: 42D cells, approximately 72 hours
Protocol: as §1, §2, §3

[4] = molecular target: T1, BRN2 (Homo sapiens, UniProt P20265); test: cell-based; details: negative = activation; for inhibition at 10 µM: read-out: % BRN2 Inhibition (10 μM), 10 μM compound, 24 hours, 42D^ENZR cells stably expressing BRN2-luciferase reporter; for inhibition at 30 µM: read-out: % BRN2 Inhibition (30 μM), 30 μM compound, 24 hours, 42D^ENZR cells stably expressing BRN2-luciferase reporter
T1 sequence (P20265 1-443): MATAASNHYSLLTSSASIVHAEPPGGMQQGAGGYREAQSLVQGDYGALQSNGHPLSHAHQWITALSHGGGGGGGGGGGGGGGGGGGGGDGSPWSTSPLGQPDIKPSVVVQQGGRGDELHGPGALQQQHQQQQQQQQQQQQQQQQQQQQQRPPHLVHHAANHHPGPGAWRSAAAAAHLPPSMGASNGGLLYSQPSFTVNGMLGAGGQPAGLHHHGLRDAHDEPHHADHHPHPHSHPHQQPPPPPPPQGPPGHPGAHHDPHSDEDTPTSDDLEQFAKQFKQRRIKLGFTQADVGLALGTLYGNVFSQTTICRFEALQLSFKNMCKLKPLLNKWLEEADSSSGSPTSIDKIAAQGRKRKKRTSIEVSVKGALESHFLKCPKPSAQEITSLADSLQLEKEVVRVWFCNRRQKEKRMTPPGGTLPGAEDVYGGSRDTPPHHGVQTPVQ

Structure (SMILES)	specificity [1]	Met Stab % (60 mins HLM/MLM) [2] [%]	half-life at 1 µM [2] [min]	IC50 [3] [µM]	inhibition at 10 µM [4] [%]	inhibition at 30 µM [4] [%]
Cc1c(-c2csc(-c3ccc[nH]3)n2)oc2cc(Cl)ccc12 [VPC-18-155]	not 16D	24	31	10		
Clc1ccc2cc(-c3csc(-c4ccc[nH]4)n3)oc2c1 [VPC-18-94, 4-(6-chlorobenzofuran-2-yl)-2-(1H-pyrrol-2-yl)thiazole]	VPC-18-94 (specific no effect on LNCaP and 16D)	21	27		79.6	86.9
Clc1ccc2cc(-c3csc(-c4ccco4)n3)oc2c1 [VPC-18-66, 4-(6-chlorobenzofuran-2-yl)-2-(furan-2-yl)thiazole]	VPC-18-66 (specific- no effect on LNCaP and 16D)	31	42		82	94
c1coc(-c2ncc(-c3cc4ccccc4o3)s2)c1 [VPC-18-90, 5-(benzofuran-2-yl)-2-(furan-2-yl)thiazole]	VPC-18-90 (specific)	0	8		80	92
Clc1ccc2cc(-c3cccc(-c4ccc[nH]4)n3)oc2c1 [VPC-18-149]	not 16D	21	30	1	94.6	96.2
c1ccc2oc(-c3csc(-c4ccoc4)n3)cc2c1 [VPC-18-76, 4-(benzofuran-2-yl)-2-(furan-3-yl)thiazole]	VPC-18-76 (specific)	1	9		96.3	94.9
